Assay [1] concerns the target T1, ABHD6 (Mus musculus (Mouse), UniProt Q8R2Y0). Nature of the assay: In vitro competitive activity-based protein profiling (FP-Rh), mouse ABHD6. The class given is biochemical. Particulars: mouse brain membrane proteome. As to the method:
(§1) In Vitro Competitive Activity-Based Protein Profiling.
(§2) Proteomes (mouse brain membrane fraction or cell lysates) ([…], 1.0 mg/mL total protein concentration) were preincubated with varying concentrations of inhibitors at 37° C. After 30 min, FP-Rh (1.0 μL, 50 μM in DMSO) was added and the mixture was incubated for another 30 min at 37° C. Reactions were quenched with SDS loading buffer (50 μL—4×) and run on SDS-PAGE.

For assay [2], the target named is Human MAGL (Homo sapiens (Human), UniProt Q99685). In words: Competitive ABPP with recombinant human MAGL expressed in HEK293T cells. In kind it is biochemical. Particulars: hMAGL in HEK293T cell lysates. As to the method:
as §2
Recombinant Expression of Human MAGL in HEK293T Cells.
Cell lysates were diluted with mock proteomes for use in competitive ABPP experiments.

For assay [3], the target named is T2, MAGL (Mus musculus (Mouse), UniProt O35678). Nature of the assay: In vitro competitive activity-based protein profiling (FP-Rh), mouse MAGL. In kind it is biochemical. The note with it: mouse brain membrane proteome. Here is the method:
as §1, §2

Assay [4] concerns the target T3, FAAH (Mus musculus (Mouse), UniProt O08914). Nature of the assay: In vitro competitive activity-based protein profiling (FP-Rh), mouse FAAH. In kind it is biochemical. Particulars: mouse brain membrane proteome. As to the method:
as §1, §2

Assay [5] concerns the target Mouse brain MAGL (Mus musculus (Mouse), UniProt O35678). In words: Mouse brain proteomes from inhibitor treated mice (oral gavage, ABPP of brain MAGL). In kind it is in vivo. The note with it: 5 mg/kg, 4 h following administration. Here is the method:
Preparation of Mouse Brain Proteomes from Inhibitor Treated Mice.
Inhibitors were administered to wild-type C57Bl/6J by oral gavage in a vehicle of polyethylene glycol.

Assay [6] addresses T2, MAGL. In words: Competitive ABPP, % inhibition at 1 uM, MAGL. The class given is biochemical. Here is the method: as §1, §2
For assay [7], the target named is T3, FAAH. Nature of the assay: Competitive ABPP, % inhibition at 1 uM, FAAH. The class given is biochemical. Here is the method: as §1
Proteomes (mouse brain membrane fraction or cell lysates) ([…], 1.0 mg/mL total protein concentration) were preincubated with varying concentrations of inhibitors at 37° C. After 30 min, FP-Rh (1.0 μL, 50 μM in DMSO) was added and the mixture was incubated for another 30 min at 37° C. Reactions were quenched with SDS loading buffer (50 μL—4×) and run on SDS-PAGE. Following gel imaging, serine hydrolase activity was determined by measuring fluorescent intensity of gel bands corresponding to MAGL, ABHD6 and FAAH using ImageJ 1.43u software.

Assay [8] has as its target T1, ABHD6. Nature of the assay: Competitive ABPP, % inhibition at 1 uM, ABHD6. The class given is biochemical. As to the method: as §1, §2

The source of these data is patent US9133148B2, “Carbamate compounds and of making and using same” (Abide Therapeutics, Inc., priority 2012, dated 2015).

Sequence of Mouse brain MAGL (O35678 whole entry): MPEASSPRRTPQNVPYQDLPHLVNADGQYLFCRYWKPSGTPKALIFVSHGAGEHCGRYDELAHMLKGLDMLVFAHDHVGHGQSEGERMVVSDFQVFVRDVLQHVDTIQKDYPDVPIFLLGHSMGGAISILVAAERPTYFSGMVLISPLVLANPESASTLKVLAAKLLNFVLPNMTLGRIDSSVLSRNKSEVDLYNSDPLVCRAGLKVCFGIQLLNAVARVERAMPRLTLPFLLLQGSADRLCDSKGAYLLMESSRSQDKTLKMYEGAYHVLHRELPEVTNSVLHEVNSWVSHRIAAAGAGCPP
T2 sequence (O35678 whole entry): as above
Sequence of Human MAGL (Q99685 whole entry): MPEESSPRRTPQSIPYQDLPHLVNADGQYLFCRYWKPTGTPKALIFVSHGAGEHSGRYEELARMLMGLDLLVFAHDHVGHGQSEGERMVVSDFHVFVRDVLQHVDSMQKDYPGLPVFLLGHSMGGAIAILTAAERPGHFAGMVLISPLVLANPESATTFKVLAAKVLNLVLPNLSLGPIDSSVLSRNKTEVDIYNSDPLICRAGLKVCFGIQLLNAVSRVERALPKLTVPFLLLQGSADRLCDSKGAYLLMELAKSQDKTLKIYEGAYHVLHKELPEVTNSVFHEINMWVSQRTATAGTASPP
T3 sequence (O08914 whole entry): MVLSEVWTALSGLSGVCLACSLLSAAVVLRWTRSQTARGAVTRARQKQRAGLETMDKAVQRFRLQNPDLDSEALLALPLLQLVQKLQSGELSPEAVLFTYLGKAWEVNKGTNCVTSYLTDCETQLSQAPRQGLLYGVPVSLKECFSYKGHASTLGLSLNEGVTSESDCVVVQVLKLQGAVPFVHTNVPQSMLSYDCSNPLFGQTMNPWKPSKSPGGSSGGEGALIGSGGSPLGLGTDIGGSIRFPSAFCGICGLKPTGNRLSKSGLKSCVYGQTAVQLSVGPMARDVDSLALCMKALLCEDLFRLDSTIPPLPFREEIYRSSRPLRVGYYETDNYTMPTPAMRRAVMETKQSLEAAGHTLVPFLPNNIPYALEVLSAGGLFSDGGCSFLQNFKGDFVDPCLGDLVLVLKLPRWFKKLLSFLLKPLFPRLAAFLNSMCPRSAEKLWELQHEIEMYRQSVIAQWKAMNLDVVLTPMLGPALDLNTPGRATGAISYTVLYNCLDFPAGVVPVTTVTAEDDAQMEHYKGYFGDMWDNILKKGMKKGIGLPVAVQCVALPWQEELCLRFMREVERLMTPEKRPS
T1 sequence (Q8R2Y0 whole entry): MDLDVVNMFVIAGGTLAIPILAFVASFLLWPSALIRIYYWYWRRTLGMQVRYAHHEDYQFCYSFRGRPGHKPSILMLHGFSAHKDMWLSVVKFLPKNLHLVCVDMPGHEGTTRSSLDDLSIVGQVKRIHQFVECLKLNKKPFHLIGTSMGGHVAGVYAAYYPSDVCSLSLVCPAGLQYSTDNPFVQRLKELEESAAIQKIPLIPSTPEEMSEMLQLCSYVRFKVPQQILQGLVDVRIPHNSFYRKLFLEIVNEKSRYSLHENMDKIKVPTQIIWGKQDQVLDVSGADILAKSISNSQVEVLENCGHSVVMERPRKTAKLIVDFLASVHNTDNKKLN

`Cc1ccc(S(=O)(=O)N2CCN(C(=O)OC(C(F)(F)F)C(F)(F)F)CC2)cc1` [Example 4b, 1,1,1,3,3,3-hexafluoropropan-2-yl 4-tosylpiperazine-1-carboxylate]: the IC50 was 100 to 1000 nM in assay [1] (competitive ABPP), below 100 nM in assay [2], below 100 nM in assay [3] (competitive ABPP) and above 10000 nM in assay [4] (competitive ABPP).
Take `O=C(OC(C(F)(F)F)C(F)(F)F)N1CCN(C(=O)c2ccc(-c3ccccc3)cc2)CC1` [Example 3c, 1,1,1,3,3,3-hexafluoropropan-2-yl 4-([1,1′-biphenyl]-4-carbonyl)-piperazine-1-carboxylate]: the IC50 in assay [1] (competitive ABPP) is above 1000 nM; in assay [2], above 1000 nM; in assay [3] (competitive ABPP), above 1000 nM; in assay [4] (competitive ABPP) it was above 10000 nM.
Regarding `Cc1nc(-c2cccc(CN(C)C(=O)OC(C(F)(F)F)C(F)(F)F)c2)no1` [Example 3j, 1,1,1,3,3,3-hexafluoropropan-2-yl methyl(3-(5-methyl-1,2,4-oxadiazol-3-yl)benzyl)carbamate], the IC50 is 100 to 1000 nM in assay [1] (competitive ABPP), below 100 nM in assay [2], 100 to 1000 nM in assay [3] (competitive ABPP) and above 10000 nM in assay [4] (competitive ABPP).
For `COc1ccc(N2CCN(C(=O)OC(C(F)(F)F)C(F)(F)F)CC2)cc1` [Example 3e, 1,1,1,3,3,3-hexafluoropropan-2-yl 4-(4-methoxyphenyl)piperazine-1-carboxylate], the IC50 in assay [1] (competitive ABPP) is 100 to 1000 nM; in assay [2], 100 to 1000 nM; in assay [3] (competitive ABPP) it was above 1000 nM; in assay [4] (competitive ABPP), above 10000 nM.
Regarding `O=C(OC(C(F)(F)F)C(F)(F)F)N1CCN(Cc2ccc(Cl)cc2N2CCN3CCC[C@@H]3C2)CC1` [Example 9bi, (R)-1,1,1,3,3,3-hexafluoropropan-2-yl 4-(4-chloro-2-(hexahydropyrrolo[1,2-a]pyrazin-2(1H)-yl)benzyl)piperazine-1-carboxylate], the IC50 is above 1000 nM in assay [1] (competitive ABPP (Table 7)), below 100 nM in assay [3] (competitive ABPP (Table 7)) and above 10000 nM in assay [4] (competitive ABPP (Table 7)). Further, in assay [5], the “Mouse brain MAGL (% inhibition at 5 mg/kg, p.o.)” value was found to be 50%.
For the molecule `O=C(OC(C(F)(F)F)C(F)(F)F)N1CCN(Cc2ccc(Cl)cc2N2CCC3(CCOCC3)C2)CC1` [Example 9av, 1,1,1,3,3,3-hexafluoropropan-2-yl 4-(4-chloro-2-(8-oxa-2-azaspiro[4.5]decan-2-yl)benzyl)piperazine-1-carboxylate], the IC50 is above 1000 nM in assay [1] (competitive ABPP (Table 7)), below 100 nM in assay [3] (competitive ABPP (Table 7)) and above 10000 nM in assay [4] (competitive ABPP (Table 7)). Further, in assay [5], the “Mouse brain MAGL (% inhibition at 5 mg/kg, p.o.)” value is on record as 75%.
For the molecule `O=C(OC(C(F)(F)F)C(F)(F)F)N1CCN(Cc2ccc(Cl)cc2N2Cc3cccnc3C2)CC1` [Example 9bh, 1,1,1,3,3,3-hexafluoropropan-2-yl 4-(4-chloro-2-(5H-pyrrolo[3,4-b]pyridin-6(7H)-yl)benzyl)piperazine-1-carboxylate], the IC50 in assay [1] (competitive ABPP (Table 7)) was 100 to 1000 nM; in assay [3] (competitive ABPP (Table 7)), below 100 nM; in assay [4] (competitive ABPP (Table 7)), above 10000 nM. Moreover, in assay [5], the “Mouse brain MAGL (% inhibition at 5 mg/kg, p.o.)” value is 25%.
Take `CN(Cc1ccc2c(c1)OCO2)C(=O)OC(C(F)(F)F)C(F)(F)F` [Example 3i, 1,1,1,3,3,3-hexafluoropropan-2-yl(benzo[d][1,3]dioxol-5-ylmethyl)-(methyl)carbamate]: the IC50 in assay [1] (competitive ABPP) is above 1000 nM; in assay [2] it was 100 to 1000 nM; in assay [3] (competitive ABPP), 100 to 1000 nM; in assay [4] (competitive ABPP) it was above 10000 nM.
Take `Cc1cc(N2CCN(C(=O)OC(C(F)(F)F)C(F)(F)F)CC2)c2ccccc2n1` [Example 3h, 1,1,1,3,3,3-hexafluoropropan-2-yl 4-(2-methylquinolin-4-yl)piperazine-1-carboxylate]: the IC50 is above 1000 nM in assay [1] (competitive ABPP), below 100 nM in assay [2], above 1000 nM in assay [3] (competitive ABPP) and above 10000 nM in assay [4] (competitive ABPP).
With `O=C(OC(C(F)(F)F)C(F)(F)F)N1CCC(=C(c2ccc3c(c2)OCO3)c2ccc3c(c2)OCO3)CC1` [Example 1d, 1,1,1,3,3,3-hexafluoropropan-2-yl 4-(bis(benzo[d][1,3]dioxol-5-yl)methylene)piperidine-1-carboxylate], the IC50 in assay [1] (competitive ABPP) is 100 to 1000 nM; in assay [2] it was below 100 nM; in assay [3] (competitive ABPP) it was below 100 nM; in assay [4] (competitive ABPP) it was above 10000 nM.
`O=C(OC(C(F)(F)F)C(F)(F)F)N1CCN(C(c2ccc3c(c2)OC(F)(F)O3)c2ccc3c(c2)OC(F)(F)O3)CC1` [Example 2f, 1,1,1,3,3,3-hexafluoropropan-2-yl 4-(bis(2,2-difluorobenzo[d][1,3]-dioxol-5-yl)methyl)piperazine-1-carboxylate]: the IC50 in assay [1] (competitive ABPP) is above 1000 nM; in assay [2] it was below 100 nM; in assay [3] (competitive ABPP), below 100 nM; in assay [4] (competitive ABPP), above 10000 nM.
As for `O=C(OC(C(F)(F)F)C(F)(F)F)N1CCN(S(=O)(=O)c2ccc3ccccc3c2)CC1` [Example 4h, 1,1,1,3,3,3-hexafluoropropan-2-yl 4-(naphthalen-2-ylsulfonyl)-piperazine-1-carboxylate], the IC50 in assay [1] (competitive ABPP) is above 1000 nM; in assay [2] it was above 1000 nM; in assay [3] (competitive ABPP), below 100 nM; in assay [4] (competitive ABPP) it was above 10000 nM.
On to `CC(C)c1cc(C(C)C)c(S(=O)(=O)N2CCN(C(=O)OC(C(F)(F)F)C(F)(F)F)CC2)c(C(C)C)c1` [Example 4f, 1,1,1,3,3,3-hexafluoropropan-2-yl 4-((2,4,6-triisopropylphenyl)-sulfonyl)piperazine-1-carboxylate], for which the IC50 is above 1000 nM in assay [1] (competitive ABPP), above 1000 nM in assay [2], above 1000 nM in assay [3] (competitive ABPP) and above 10000 nM in assay [4] (competitive ABPP).
On to `CC(=O)Nc1ccc(S(=O)(=O)N2CCN(C(=O)OC(C(F)(F)F)C(F)(F)F)CC2)cc1` [Example 4e, 1,1,1,3,3,3-hexafluoropropan-2-yl 4-((4-acetamidophenyl)sulfonyl)-piperazine-1-carboxylate], for which the IC50 was above 1000 nM in assay [1] (competitive ABPP), above 1000 nM in assay [2], above 1000 nM in assay [3] (competitive ABPP) and above 10000 nM in assay [4] (competitive ABPP).
As for `O=C(OC(C(F)(F)F)C(F)(F)F)N1CCN(S(=O)(=O)c2cccc(C(F)(F)F)c2)CC1` [Example 4i, 1,1,1,3,3,3-hexafluoropropan-2-yl 4-((3-(trifluoromethyl)phenyl)-sulfonyl)piperazine-1-carboxylate], the IC50 in assay [1] (competitive ABPP) was above 1000 nM; in assay [2], 100 to 1000 nM; in assay [3] (competitive ABPP) it was 100 to 1000 nM; in assay [4] (competitive ABPP) it was above 10000 nM.
In the case of `O=C(OC(C(F)(F)F)C(F)(F)F)N1CCN(C(c2ccc3c(c2)CCO3)c2ccc3c(c2)CCO3)CC1` [Example 2e, 1,1,1,3,3,3-hexafluoropropan-2-yl 4-(bis(2,3-dihydrobenzofuran-5-yl)methyl)piperazine-1-carboxylate], the IC50 in assay [1] (competitive ABPP) is 100 to 1000 nM; in assay [2], below 100 nM; in assay [3] (competitive ABPP), below 100 nM; in assay [4] (competitive ABPP), above 10000 nM.
For `O=C(OC(C(F)(F)F)C(F)(F)F)N1CCN(Cc2ccc(-c3ccccc3)cc2)CC1` [Example 3b, 1,1,1,3,3,3-hexafluoropropan-2-yl 4-([1,1′-biphenyl]-4-ylmethyl)-piperazine-1-carboxylate], the IC50 is above 1000 nM in assay [1] (competitive ABPP), below 100 nM in assay [2], 100 to 1000 nM in assay [3] (competitive ABPP) and above 10000 nM in assay [4] (competitive ABPP).
Consider `Cc1ccccc1S(=O)(=O)N1CCN(C(=O)OC(C(F)(F)F)C(F)(F)F)CC1` [Example 4g, 1,1,1,3,3,3-hexafluoropropan-2-yl 4-(o-tolylsulfonyl)piperazine-1-carboxylate], for which the 50% inhibitory concentration (IC50) in assay [1] (competitive ABPP) was 100 to 1000 nM; in assay [2] it was 100 to 1000 nM; in assay [3] (competitive ABPP) it was 100 to 1000 nM; in assay [4] (competitive ABPP), above 10000 nM.
Turning to `O=C(OC(C(F)(F)F)C(F)(F)F)N1CCN(S(=O)(=O)c2ccccc2)CC1` [Example 4a, 1,1,1,3,3,3-hexafluoropropan-2-yl 4-(phenylsulfonyl)piperazine-1-carboxylate], the IC50 in assay [1] (competitive ABPP) is 100 to 1000 nM; in assay [2], 100 to 1000 nM; in assay [3] (competitive ABPP), 100 to 1000 nM; in assay [4] (competitive ABPP), above 10000 nM.
As for `N#Cc1ccc(S(=O)(=O)N2CCN(C(=O)OC(C(F)(F)F)C(F)(F)F)CC2)cc1` [Example 4d, 1,1,1,3,3,3-hexafluoropropan-2-yl 4-((4-cyanophenyl)sulfonyl)-piperazine-1-carboxylate], the IC50 was above 1000 nM in assay [1] (competitive ABPP), 100 to 1000 nM in assay [2], 100 to 1000 nM in assay [3] (competitive ABPP) and above 10000 nM in assay [4] (competitive ABPP).
For `Cc1cccc(-c2ccc(CN3CCN(C(=O)OC(C(F)(F)F)C(F)(F)F)CC3)c(C)c2)c1` [Example 11h, 1,1,1,3,3,3-hexafluoropropan-2-yl 4-[[2-methyl-4-(3-methylphenyl)phenyl]methyl]piperazine-1-carboxylate], the inhibition at 1 µM was 25 to 75% in assay [6], below 25% in assay [7] and below 25% in assay [8].

By IC50 is commonly meant the concentration needed to halve the response being measured. The term inhibition denotes the drop in the measured response relative to a control, in per cent. The low end stands for little suppression, the high end for strong suppression.
